Legend:
[1] = system: H358 cells; experiment: Cell growth / drug combination analysis (alamar blue, Calcusyn); assay type: cell-based; conditions: Homo sapiens, NCI-H358
[2] = system: A549 cells; experiment: Cell growth (alamar blue); assay type: cell-based; conditions: Homo sapiens
[3] = system: H460 cells; experiment: Cell growth (alamar blue); assay type: cell-based; conditions: Homo sapiens, NCI-H460
[4] = system: phospho-ERK; experiment: Western blot of H358 cell lysates; assay type: cell-based; conditions: H358 cells, 72 h
[5] = system: cyclin D1; experiment: Western blot of H358 cell lysates; assay type: cell-based; conditions: H358 cells, 72 h
[6] = system: cleaved PARP; experiment: Western blot for cleaved PARP (apoptosis marker) in H358 cells; assay type: cell-based; conditions: 72 h, range of concentrations
[7] = system: EGFR; conditions: H358 cells, 72 h, western blot
[8] = system: phospho-Tyr1068 EGFR; conditions: H358 cells, 72 h, western blot
[9] = system: H292 xenograft; experiment: H292 xenograft model; assay type: in vivo, nude mice; conditions: seliciclib 50 mg bid, [1] 40 mg bid days 1-5 and 11-15; erlotinib 100 mg qd po, 50 mg from day 11
[10] = system: H292 cells; experiment: Drug combination analysis (Alamar blue, Calcusyn); conditions: 72 hours
[11] = system: SkBr3 cells; experiment: Cell growth / drug combination analysis (alamar blue, Calcusyn); assay type: cell-based; conditions: for Calcusyn combination value at 50% effective dose: in combination with Lapatinib
[12] = system: H358 xenograft; conditions: day 49, erlotinib 100 mg/kg po daily, 28 days; for mean tumour volume: seliciclib 50 mg/kg ip twice daily 5 days on/2 off
[13] = system: MCF7 cells; experiment: Cell growth (alamar blue); assay type: cell-based
[14] = system: HER2; experiment: Western blot of SkBr3 cell lysates; assay type: cell-based; conditions: SkBr3 cells, 24 h
[15] = system: cyclin D1; experiment: Western blot of SkBr3 cell lysates; assay type: cell-based; conditions: SkBr3 cells, 24 h
[16] = system: H358 cells; experiment: Flow cytometry of DNA content (propidium iodide); conditions: 1×IC50, 72 h
Experimental: (B) The DNA content of the cells was analysed by flow cytometry after propidium iodide staining. Sub-G1 cells are those that contain less DNA than normal diploid cells. Results are representative of two independent experiments.
H358 or H1650 cells were seeded in 10 cm plates at approximately 5×10^5 cells/plate and left to settle overnight. […] After 72 h treatment, cells were harvested by trypsinisation, washed twice in PBS and then fixed overnight in 70% (v/v) ethanol at −20° C. Cells were washed twice in PBS containing 1% (w/v) BSA, then incubated with 50 μg/ml propidium iodide and 50 μg/ml ribonuclease A for 20 min at room temperature. Cells were analysed for DNA content by flow cytometry using the CellQuest programme on a Becton Dickinson LSR flow cytometer.

Row | Structure (SMILES) | effect on tumour growth [9] | Calcusyn combination value at 50% effective dose ([10]; in combination with AG1478) | Calcusyn combination value at 50% effective dose ([10]; in combination with Erlotinib) | Calcusyn combination value at 50% effective dose ([10]; in combination with Gefitinib) | Calcusyn combination value at 50% effective dose ([10]; in combination with Lapatinib) | other results
1 | COc1cc2ncnc(Nc3cccc(Cl)c3)c2cc1OC [AG1478, 4-(3-chloroanilino)-6,7-dimethoxyquinazoline] |  |  |  |  |  | IC50 [1]: 4 µM; IC50 [2]: 6.6 µM; IC50 [3]: 10.4 µM; ERK phosphorylation [4]: stimulated ERK phosphorylation at low concentrations; cyclin D1 levels [5]: very little effect; PARP cleavage [6]: no increase in PARP cleavage; level of the EGFR [7]: decreased the level of the EGFR in a dose-dependent manner; EGFR phosphorylation [8]: dose-dependent decrease
2 | CC[C@@H](Nc1nc(NCc2cccnc2)c2ncn(C(C)C)c2n1)C(C)(C)O [[1], (3R)-3-{9-isopropyl-6-[(pyridin-3-ylmethyl)-amino]-9H-purin-2-ylamino}-2-methyl-pentan-2-ol] | minimal if any effect on tumour growth | 0.42 | 0.71 | 0.50 | 0.69 | 
3 | CC[C@H](Nc1nc(NCc2cccnc2)c2ncn(C(C)C)c2n1)C(C)(C)O [[2], (3S)-3-{9-isopropyl-6-[(pyridin-3-ylmethyl)-amino]-9H-purin-2-ylamino}-2-methyl-pentan-2-ol] |  | 0.26 | 0.62 | 0.54 | 0.79 | 
4 | CC[C@H](Nc1nc(NCc2cccnc2)c2ncn(C(C)C)c2n1)[C@@H](C)O [[3], (2R3S)-3-{9-isopropyl-6-[(pyridine-3-ylmethyl)-amino]-9H-purin-2-ylamino}-pentan-2-ol] |  | 0.31 | 0.68 | 0.49 | 0.76 | 
5 | CC[C@H](Nc1nc(NCc2cnc(C)cc2C)c2ncn(C(C)C)c2n1)[C@@H](C)O [[4]] |  | 0.36 | 0.87 | 0.55 | 0.59 | Calcusyn combination value at 50% effective dose [11]: 0.67
6 | C#Cc1cccc(Nc2ncnc3cc(OCCOC)c(OCCOC)cc23)c1 [erlotinib] | moderately effective |  |  |  |  | mean tumour volume [12]: 444 mm^3; tumour growth inhibition ([12]; seliciclib 50 mg/kg ip twice daily): 44%
7 | CC[C@H](CO)Nc1nc(NCc2ccccc2)c2ncn(C(C)C)c2n1 [seliciclib, 2-(1-R-hydroxymethylpropylamino)-6-benzylamino-9-isopropylpurine] | minimal if any effect on tumour growth | 0.38 | 0.68 | 0.53 | 0.57 | IC70 (growth inhibition) [11]: 20.4 µM; Calcusyn combination value at 50% effective dose [11]: 0.72; IC70 (growth inhibition) [13]: 15.4 µM; HER2 levels [14]: decreased HER2 levels in a dose-dependent manner; cyclin D1 levels [15]: significantly decreased cyclin D1 levels in a dose-dependent manner; ERK phosphorylation [4]: no significant effect; cyclin D1 levels [5]: modest decrease; PARP cleavage [6]: dose-dependent increase in cleaved PARP; level of the EGFR [7]: decreased the level of the EGFR in a dose-dependent manner; EGFR phosphorylation [8]: limited effect; mean tumour volume [12]: 717 mm^3; G2/M phase cells [16]: characteristic increase in G2/M phase cells

Reference: patent publication US9173938B2, “Combination of a purine-based CDK inhibitor with a tyrosine kinase inhibitor and use thereof in the treatment of proliferative disorders” (Cyclacel Limited, priority 2007, dated 2015)
